Source: US20100267561A1, “HERBICIDAL PYRIDAZINONE DERIVATIVES” (priority 2007, published 2010)

Assays:
Format in all cases: in vivo
[1] = system: barnyardgrass (Echinochloa crus-galli); experiment: Test A pre-/postemergence plant response
Excerpt: (§1) Seeds of species selected from barnyardgrass (Echinochloa crus-galli), large crabgrass (Digitaria sanguinalis), giant foxtail (Setaria faberi), blackgrass (Alopecurus myosuroides), canarygrass (Phalaris minor), morningglory (Ipomoea coccinea), pigweed (Amaranthus retroflexus), velvetleaf (Abutilon theophrasti), wheat (Triticum aestivum), and corn (Zea mays) were planted into a blend of loam soil and sand and treated preemergence with a directed soil spray using test chemicals formulated in a non-phytotoxic solvent mixture which included a surfactant. At the same time these species were also treated with postemergence applications of test chemicals formulated in the same manner.
(§2) Plants ranged in height from 2 to 10 cm and were in the one- to two-leaf stage for the postemergence treatment. Treated plants and untreated controls were maintained in a greenhouse for approximately 10 days, after which time all treated plants were compared to untreated controls and visually evaluated for injury. Plant response ratings, summarized in Table A, are based on a 0 to 100 scale where 0 is no effect and 100 is complete control. A dash (-) response means no test results.

corn (Zea mays) = experiment: Test A pre-/postemergence plant response
Excerpt: as §1, §2

[2] = system: giant foxtail (Setaria faberi); experiment: Test A pre-/postemergence plant response
Excerpt: as §1, §2

[3] = system: large crabgrass (Digitaria sanguinalis); experiment: Test A pre-/postemergence plant response
Excerpt: as §1, §2

[4] = system: morningglory (Ipomoea coccinea); experiment: Test A pre-/postemergence plant response
Excerpt: as §1, §2

[5] = system: pigweed (Amaranthus retroflexus); experiment: Test A pre-/postemergence plant response
Excerpt: as §1, §2

[6] = system: velvetleaf (Abutilon theophrasti); experiment: Test A pre-/postemergence plant response
Excerpt: as §1, §2

[7] = system: wheat (Triticum aestivum); experiment: Test A pre-/postemergence plant response
Excerpt: as §1, §2

[8] = system: barnyardgrass (Echinochloa crus-galli); experiment: Test B flooded paddy test plant response
Excerpt: (§3) Plant species in the flooded paddy test consisted of rice (Oryza sativa), umbrella sedge (Cyperus difformis), ducksalad (Heteranthera limosa) and barnyardgrass (Echinochloa crus-galli) grown to the 2-leaf stage for testing. At time of treatment, test pots were flooded to 3 cm above the soil surface, treated by application of test compounds directly to the paddy water, and then maintained at that water depth for the duration of the test. Treated plants and controls were maintained in a greenhouse for 13 to 15 days, after which time all species were compared to controls and visually evaluated. Plant response ratings, summarized in Table B, are based on a scale of 0 to 100 where 0 is no effect and 100 is complete control. A dash (-) response means no test result.

[9] = system: ducksalad (Heteranthera limosa); experiment: Test B flooded paddy test plant response
Excerpt: as §3

rice (Oryza sativa) = experiment: Test B flooded paddy test plant response
Excerpt: as §3

[10] = system: umbrella sedge (Cyperus difformis); experiment: Test B flooded paddy test plant response
Excerpt: as §3

[11] = system: blackgrass (Alopecurus myosuroides); experiment: Test A pre-/postemergence plant response
Excerpt: as §1, §2

[12] = system: canarygrass (Phalaris minor); experiment: Test A pre-/postemergence plant response
Excerpt: as §1, §2

[13] = Postemergence, 31 g ai/ha, 0 to 100 scale (0 no effect, 100 complete control)
[14] = Postemergence, 125 g ai/ha, 0 to 100 scale, 0 no effect, 100 complete control
[15] = Preemergence, 31 g ai/ha, 0 to 100 scale, 0 is no effect, 100 is complete control
[16] = Preemergence, 125 g ai/ha, 0 to 100 scale (0 no effect, 100 complete control)
[17] = Flood (flooded paddy test), 62 g ai/ha, scale 0 to 100, 0 no effect, 100 complete control
[18] = Flood (flooded paddy test), 125 g ai/ha, scale 0 to 100, 0 no effect, 100 complete control
[19] = Flood (flooded paddy test), 250 g ai/ha, scale 0 to 100, 0 no effect, 100 complete control
[20] = Flood, 31 g ai/ha, scale 0 to 100

For CCc1cc(-c2ccc(Cl)s2)nn1-c1c(O)cnn(C)c1=O [Compound 63], the “Plant response rating, Barnyardgrass” value [1, 13] was 0, the “Plant response rating, Barnyardgrass” value [1, 14] was 20 and the “Plant response rating, Barnyardgrass” value [1, 15] was 0. The “Plant response rating, Barnyardgrass” value [1, 16] was 10, the “Plant response rating, Corn” value (corn (Zea mays); [13]) was 0 and the “Plant response rating, Corn” value (corn (Zea mays); [14]) was 30. The “Plant response rating, Corn” value (corn (Zea mays); [15]) was 0, the “Plant response rating, Corn” value (corn (Zea mays); [16]) was 0 and the “Plant response rating, Foxtail, Giant” value [2, 13] was 0. The “Plant response rating, Foxtail, Giant” value [2, 14] was 60, the “Plant response rating, Foxtail, Giant” value [2, 15] was 0 and the “Plant response rating, Foxtail, Giant” value [2, 16] was 0. The “Plant response rating, Crabgrass, Large” value [3, 13] was 10, the “Plant response rating, Crabgrass, Large” value [3, 14] was 10 and the “Plant response rating, Crabgrass, Large” value [3, 15] was 0. For the same compound, the “Plant response rating, Crabgrass, Large” value [3, 16] was 0, the “Plant response rating, Morningglory” value [4, 13] was 0 and the “Plant response rating, Morningglory” value [4, 14] was 0. For the same compound, the “Plant response rating, Morningglory” value [4, 15] was 0, the “Plant response rating, Morningglory” value [4, 16] was 0 and the “Plant response rating, Pigweed” value [5, 13] was 0. The “Plant response rating, Pigweed” value [5, 14] was 0, the “Plant response rating, Pigweed” value [5, 15] was 0 and the “Plant response rating, Pigweed” value [5, 16] was 0. The “Plant response rating, Velvetleaf” value [6, 13] was 0, the “Plant response rating, Velvetleaf” value [6, 14] was 0 and the “Plant response rating, Velvetleaf” value [6, 15] was 0. For the same compound, the “Plant response rating, Velvetleaf” value [6, 16] was 0, the “Plant response rating, Wheat” value [7, 13] was 0 and the “Plant response rating, Wheat” value [7, 14] was 20. For the same compound, the “Plant response rating, Wheat” value [7, 15] was 0, the “Plant response rating, Wheat” value [7, 16] was 0 and the “Plant response rating, Barnyardgrass” value [8, 17] was 0. For the same compound, the “Plant response rating, Barnyardgrass” value [8, 18] was 0, the “Plant response rating, Barnyardgrass” value [8, 19] was 0 and the “Plant response rating, Barnyardgrass” value [8, 20] was 0. For the same compound, the “Plant response rating, Ducksalad” value [9, 17] was 0, the “Plant response rating, Ducksalad” value [9, 18] was 0 and the “Plant response rating, Ducksalad” value [9, 19] was 0. For the same compound, the “Plant response rating, Ducksalad” value [9, 20] was 0, the “Plant response rating, Rice” value (rice (Oryza sativa); [17]) was 0 and the “Plant response rating, Rice” value (rice (Oryza sativa); [18]) was 0. The “Plant response rating, Rice” value (rice (Oryza sativa); [19]) was 0, the “Plant response rating, Rice” value (rice (Oryza sativa); [20]) was 0 and the “Plant response rating, Sedge, Umbrella” value [10, 17] was 0. For the same compound, the “Plant response rating, Sedge, Umbrella” value [10, 18] was 0, the “Plant response rating, Sedge, Umbrella” value [10, 19] was 0 and the “Plant response rating, Sedge, Umbrella” value [10, 20] was 0.

In the case of Cc1c(Br)c(-c2ccc(Br)cc2)nn1-c1c(O)cnn(C)c1=O [Compound 70], the “Plant response rating, Barnyardgrass” value [1, 13] is reported as 0, the “Plant response rating, Barnyardgrass” value [1, 14] is reported as 50 and the “Plant response rating, Barnyardgrass” value [1, 15] is reported as 0. The “Plant response rating, Barnyardgrass” value [1, 16] was 0, the “Plant response rating, Blackgrass” value [11, 13] was 0 and the “Plant response rating, Blackgrass” value [11, 14] was 10. For the same compound, the “Plant response rating, Blackgrass” value [11, 15] was 0, the “Plant response rating, Blackgrass” value [11, 16] was 0 and the “Plant response rating, Canarygrass” value [12, 13] was 0. For the same compound, the “Plant response rating, Canarygrass” value [12, 14] was 0, the “Plant response rating, Canarygrass” value [12, 15] was 0 and the “Plant response rating, Canarygrass” value [12, 16] was 0. The “Plant response rating, Corn” value (corn (Zea mays); [13]) was 0, the “Plant response rating, Corn” value (corn (Zea mays); [14]) was 20 and the “Plant response rating, Corn” value (corn (Zea mays); [15]) was 0. The “Plant response rating, Corn” value (corn (Zea mays); [16]) was 0, the “Plant response rating, Foxtail, Giant” value [2, 13] was 0 and the “Plant response rating, Foxtail, Giant” value [2, 14] was 0. For the same compound, the “Plant response rating, Foxtail, Giant” value [2, 15] was 0, the “Plant response rating, Foxtail, Giant” value [2, 16] was 0 and the “Plant response rating, Crabgrass, Large” value [3, 13] was 0. The “Plant response rating, Crabgrass, Large” value [3, 14] was 0, the “Plant response rating, Crabgrass, Large” value [3, 15] was 0 and the “Plant response rating, Crabgrass, Large” value [3, 16] was 0. For the same compound, the “Plant response rating, Pigweed” value [5, 13] was 0, the “Plant response rating, Pigweed” value [5, 14] was 0 and the “Plant response rating, Pigweed” value [5, 15] was 0. For the same compound, the “Plant response rating, Pigweed” value [5, 16] was 0, the “Plant response rating, Wheat” value [7, 13] was 0 and the “Plant response rating, Wheat” value [7, 14] was 0. For the same compound, the “Plant response rating, Wheat” value [7, 15] was 0 and the “Plant response rating, Wheat” value [7, 16] was 0.
